Data published in patent publication US11524961B2, “JAK kinase inhibitor and preparation method and use thereof” (Shanghai Longwood Biopharmaceuticals Co., Ltd., priority 2017, dated 2022).
Like-named read-outs stand apart in the source and are kept apart here.

How the values were obtained:
JAK2 = JAK2 (Homo sapiens (Human), UniProt O60674); assay: JAK2 enzyme activity inhibition (LANCE Ultra kinase assay)
JAK3 = JAK3 (Homo sapiens (Human), UniProt P52333); assay: JAK3 enzyme activity inhibition (LANCE Ultra kinase assay); settings: read-out: JAK3 inhibitory activity IC50
JAK3, sequence (P52333 whole entry): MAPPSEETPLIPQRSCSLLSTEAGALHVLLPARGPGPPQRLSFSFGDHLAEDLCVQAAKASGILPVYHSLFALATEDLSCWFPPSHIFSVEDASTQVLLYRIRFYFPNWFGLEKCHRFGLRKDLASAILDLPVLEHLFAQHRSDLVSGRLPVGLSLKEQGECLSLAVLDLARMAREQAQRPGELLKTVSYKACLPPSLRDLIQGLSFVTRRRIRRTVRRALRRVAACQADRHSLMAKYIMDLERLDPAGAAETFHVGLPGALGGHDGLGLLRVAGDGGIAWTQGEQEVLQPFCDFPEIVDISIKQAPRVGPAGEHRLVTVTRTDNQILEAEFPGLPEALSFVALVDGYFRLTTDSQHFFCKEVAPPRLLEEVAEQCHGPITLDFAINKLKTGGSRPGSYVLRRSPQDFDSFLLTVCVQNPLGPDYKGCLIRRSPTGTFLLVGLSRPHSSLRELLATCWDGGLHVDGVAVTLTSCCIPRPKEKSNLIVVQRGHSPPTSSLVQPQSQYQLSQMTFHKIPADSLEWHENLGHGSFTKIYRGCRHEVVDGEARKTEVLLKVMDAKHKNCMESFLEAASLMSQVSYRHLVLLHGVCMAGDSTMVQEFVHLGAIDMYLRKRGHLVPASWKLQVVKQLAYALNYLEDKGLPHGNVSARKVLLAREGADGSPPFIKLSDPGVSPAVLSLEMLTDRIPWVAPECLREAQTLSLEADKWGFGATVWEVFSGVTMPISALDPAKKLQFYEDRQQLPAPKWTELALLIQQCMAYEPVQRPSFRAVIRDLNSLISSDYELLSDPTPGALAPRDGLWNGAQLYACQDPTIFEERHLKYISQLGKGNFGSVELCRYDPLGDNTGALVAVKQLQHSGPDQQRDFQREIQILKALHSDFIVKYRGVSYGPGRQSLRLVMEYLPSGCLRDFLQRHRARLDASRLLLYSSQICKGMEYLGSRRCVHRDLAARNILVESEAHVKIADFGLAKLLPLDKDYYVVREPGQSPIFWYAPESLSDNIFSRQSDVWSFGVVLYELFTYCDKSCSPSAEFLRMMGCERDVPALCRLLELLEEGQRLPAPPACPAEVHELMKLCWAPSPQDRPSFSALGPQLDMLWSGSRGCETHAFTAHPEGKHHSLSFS

JAK2, sequence (O60674 whole entry): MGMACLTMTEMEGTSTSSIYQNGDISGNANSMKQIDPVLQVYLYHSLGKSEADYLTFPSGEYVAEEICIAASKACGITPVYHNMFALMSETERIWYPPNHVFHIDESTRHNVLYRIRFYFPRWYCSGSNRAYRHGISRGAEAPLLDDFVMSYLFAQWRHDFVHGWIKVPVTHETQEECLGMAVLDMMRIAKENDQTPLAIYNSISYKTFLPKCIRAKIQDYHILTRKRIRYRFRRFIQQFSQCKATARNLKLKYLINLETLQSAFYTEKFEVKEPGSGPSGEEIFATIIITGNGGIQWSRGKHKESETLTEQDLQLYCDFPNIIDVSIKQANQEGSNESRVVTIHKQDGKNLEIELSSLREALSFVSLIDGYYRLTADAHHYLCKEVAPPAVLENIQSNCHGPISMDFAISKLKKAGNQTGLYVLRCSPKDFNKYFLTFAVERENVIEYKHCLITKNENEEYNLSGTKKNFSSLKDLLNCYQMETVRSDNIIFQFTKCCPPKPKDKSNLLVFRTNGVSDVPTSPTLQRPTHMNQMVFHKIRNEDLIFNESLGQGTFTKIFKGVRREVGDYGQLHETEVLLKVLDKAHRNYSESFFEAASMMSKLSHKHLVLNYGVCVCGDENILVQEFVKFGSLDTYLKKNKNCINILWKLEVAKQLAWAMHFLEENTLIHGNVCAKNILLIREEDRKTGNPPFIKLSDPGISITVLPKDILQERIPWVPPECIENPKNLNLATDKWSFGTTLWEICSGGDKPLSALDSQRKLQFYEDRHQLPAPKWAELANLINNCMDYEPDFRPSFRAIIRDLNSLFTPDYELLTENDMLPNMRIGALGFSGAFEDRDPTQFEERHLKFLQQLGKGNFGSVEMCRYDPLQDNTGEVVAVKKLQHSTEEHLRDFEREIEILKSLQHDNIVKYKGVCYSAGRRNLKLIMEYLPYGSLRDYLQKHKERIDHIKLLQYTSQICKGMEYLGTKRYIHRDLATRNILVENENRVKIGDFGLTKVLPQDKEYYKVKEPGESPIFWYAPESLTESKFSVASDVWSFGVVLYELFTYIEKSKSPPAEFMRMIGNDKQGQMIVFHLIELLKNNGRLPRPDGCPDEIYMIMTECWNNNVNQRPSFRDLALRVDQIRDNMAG

SMILES	IC50 (JAK2)	IC50 (JAK3)	IC50 (JAK2; read-out: JAK2 inhibitory activity IC50, class symbols)
CCS(=O)(=NC)N1CC(CC#N)(n2cc(-c3ncnc4[nH]ccc34)cn2)C1 (centres unmarked) [LW104-P]	10 to 100 nM	216 nM	
CC(C)S(=N)(=O)N1CC(CC#N)(n2cc(-c3ncnc4[nH]ccc34)cn2)C1 (centres unmarked) [LW104-D]		190 nM	
CCN=S(=O)(C1CC1)N1CC(CC#N)(n2cc(-c3ncnc4[nH]ccc34)cn2)C1 (centres unmarked) [LW104-M]		194 nM	
N#CCC1(n2cc(-c3ncnc4[nH]ccc34)cn2)CN(S(=O)(=NC2CC2)C2CC2)C1 (centres unmarked) [LW104-N]	0.1 to 10 nM	203 nM	
CN=S(C)(=O)N1CC(CC#N)(n2cc(-c3ncnc4[nH]ccc34)cn2)C1 (centres unmarked) [LW104-F]	0.1 to 10 nM	145 nM	
CC(N=[S@@](C)(=O)N1CC(CC#N)(n2cc(-c3ncnc4[nH]ccc34)cn2)C1)c1ccccc1 (stereo in doubt) [LW104-G]	10 to 100 nM		
N#CCC1(n2cc(-c3ncnc4[nH]ccc34)cn2)CN(S(=N)(=O)c2ccccc2)C1 (centres unmarked) [LW104-C]	10 to 100 nM	427 nM	
CCS(=N)(=O)N1CC(CC#N)(n2cc(-c3ncnc4[nH]ccc34)cn2)C1 (single isomer, unassigned) [LW104-K]		69.3 nM	0.1 to 10 nM
N#CCC1(n2cc(-c3ncnc4[nH]ccc34)cn2)CN(S(=N)(=O)C2CC2)C1 (centres unmarked) [LW104-E]	0.1 to 10 nM	187 nM	
CS(=N)(=O)N1CC(CC#N)(n2cc(-c3ncnc4[nH]ccc34)cn2)C1 (centres unmarked) [LW104-A]	0.1 to 10 nM	98.3 nM	
CC(C)N=S(C)(=O)N1CC(CC#N)(n2cc(-c3ncnc4[nH]ccc34)cn2)C1 (centres unmarked) [LW104-I]	10 to 100 nM	649 nM	
CCS(=O)(=NC1CC1)N1CC(CC#N)(n2cc(-c3ncnc4[nH]ccc34)cn2)C1 (centres unmarked) [LW104-O]		294 nM	
CN=S(=O)(C1CC1)N1CC(CC#N)(n2cc(-c3ncnc4[nH]ccc34)cn2)C1 (centres unmarked) [LW104-L]	0.1 to 10 nM	158 nM	
CCS(=N)(=O)N1CC(CC#N)(n2cc(-c3ncnc4[nH]ccc34)cn2)C1 (single isomer, unassigned) [LW104-J]	0.1 to 10 nM	116 nM	
CCS(=N)(=O)N1CC(CC#N)(n2cc(-c3ncnc4[nH]ccc34)cn2)C1 (centres unmarked) [LW104-B]	0.1 to 10 nM	136 nM	
